Legend:
[1] = system: hTERT promoter (PhTERT) expression; experiment: SEAP assay (PhTERT-SEAP reporter, H1299); format: cell-based, human; conditions: Homo sapiens, NCI-H1299, PhTERT-SEAP (H1299); for activity at 1 µM: read-out: Relative SEAP activity (%); for activity at 10 µM / activity at 100 µM: read-out: Relative SEAP activity (%) (converted)
Method in brief: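 Stable H1299 clones carrying the hTERT promoter (−3338 to +1) driving SEAP were treated with varying drug amounts for 24 h at 37° C. Heat-treated media (65° C, 10 min) were assayed with 12 mM p-nitrophenyl phosphate in diethanolamine buffer; rate of A405 increase gave SEAP activity.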

[2] = NCI 60-cell drug screen, one dose; format: cell-based, human; conditions: Renal Cancer A489, 1.00E−5 Molar
Description: (§1) In brief, cellular protein levels were determined after 48 hours of drug exposure by sulforhodamine B colorimetry.
(§2) The screening system in United State National Cancer Institute (NCI) consists of 60 kinds of different human cancer cells, which can be used to assay the growth-inhibiting ability or cell toxicity of a compound against various cancer and tumor at a certain concentration. The NCI had selected 6 compounds synthesized above, and performed cell toxicity assay against 60 kinds of cancer cell strains (Table 2) (DTP Human Tumor Cell Line Screen), in which each compound was assayed at a certain concentration to observe its inhibition ability or cell toxicity against various kinds of cancer and tumor.

786-0 = experiment: NCI 60-cell drug screen, one dose; format: cell-based, human; conditions: Renal Cancer 786-0, 1.00E−5 Molar
Description: as §1, §2

BT-549 = experiment: NCI 60-cell drug screen, one dose; format: cell-based, human; conditions: Breast Cancer BT-549, 1.00E−5 Molar
Description: as §1, §2

HL-60(TB) = experiment: NCI 60-cell drug screen, one dose; format: cell-based, human; conditions: Leukemia HL-60(TB), 1.00E−5 Molar
Description: as §1, §2

HOP-62 = experiment: NCI 60-cell drug screen, one dose; format: cell-based, human; conditions: Non-Small Cell Lung Cancer HOP-62, 1.00E−5 Molar
Description: as §1, §2

LOX IMVI = experiment: NCI 60-cell drug screen, one dose; format: cell-based, human; conditions: Melanoma LOX IMVI, 1.00E−5 Molar
Description: as §1, §2

M14 = experiment: NCI 60-cell drug screen, one dose; format: cell-based, human; conditions: Melanoma M14, 1.00E−5 Molar
Description: as §1, §2

MALME-3M = experiment: NCI 60-cell drug screen, one dose; format: cell-based, human; conditions: Melanoma MALME-3M, 1.00E−5 Molar
Description: as §1, §2

MCF7 = experiment: NCI 60-cell drug screen, one dose; format: cell-based, human; conditions: Breast Cancer MCF7, 1.00E−5 Molar
Description: as §1, §2

MDA-MB-435 = experiment: NCI 60-cell drug screen, one dose; format: cell-based, human; conditions: Melanoma MDA-MB-435, 1.00E−5 Molar
Description: as §1, §2

MDA-MB-468 = experiment: NCI 60-cell drug screen, one dose; format: cell-based, human; conditions: Breast Cancer MDA-MB-468, 1.00E−5 Molar
Description: as §1, §2

NCI-H23 = experiment: NCI 60-cell drug screen, one dose; format: cell-based, human; conditions: Non-Small Cell Lung Cancer NCI-H23, 1.00E−5 Molar
Description: as §1, §2

OVCAR-5 = experiment: NCI 60-cell drug screen, one dose; format: cell-based, human; conditions: Ovarian Cancer OVCAR-5, 1.00E−5 Molar
Description: as §1, §2

SF-268 = experiment: NCI 60-cell drug screen, one dose; format: cell-based, human; conditions: CNS Cancer SF-268, 1.00E−5 Molar
Description: as §1, §2

SF-539 = experiment: NCI 60-cell drug screen, one dose; format: cell-based, human; conditions: CNS Cancer SF-539, 1.00E−5 Molar
Description: as §1, §2

SK-MEL-28 = experiment: NCI 60-cell drug screen, one dose; format: cell-based, human; conditions: Melanoma SK-MEL-28, 1.00E−5 Molar
Description: as §1, §2

SK-MEL-2 = experiment: NCI 60-cell drug screen, one dose; format: cell-based, human; conditions: Melanoma SK-MEL-2, 1.00E−5 Molar
Description: as §1, §2

SK-MEL-5 = experiment: NCI 60-cell drug screen, one dose; format: cell-based, human; conditions: Melanoma SK-MEL-5, 1.00E−5 Molar
Description: as §1, §2

SK-OV-3 = experiment: NCI 60-cell drug screen, one dose; format: cell-based, human; conditions: Ovarian Cancer SK-OV-3, 1.00E−5 Molar
Description: as §1, §2

SN12C = experiment: NCI 60-cell drug screen, one dose; format: cell-based, human; conditions: Renal Cancer SN12C, 1.00E−5 Molar
Description: as §1, §2

SNB-75 = experiment: NCI 60-cell drug screen, one dose; format: cell-based, human; conditions: CNS Cancer SNB-75, 1.00E−5 Molar
Description: as §1, §2

T-47D = experiment: NCI 60-cell drug screen, one dose; format: cell-based, human; conditions: Breast Cancer T-47D, 1.00E−5 Molar
Description: as §1, §2

TK-10 = experiment: NCI 60-cell drug screen, one dose; format: cell-based, human; conditions: Renal Cancer TK-10, 1.00E−5 Molar
Description: as §1, §2

U251 = experiment: NCI 60-cell drug screen, one dose; format: cell-based, human; conditions: CNS Cancer U251, 1.00E−5 Molar
Description: as §1, §2

UACC-62 = experiment: NCI 60-cell drug screen, one dose; format: cell-based, human; conditions: Melanoma UACC-62, 1.00E−5 Molar
Description: as §1, §2

UO-31 = experiment: NCI 60-cell drug screen, one dose; format: cell-based, human; conditions: Renal Cancer UO-31, 1.00E−5 Molar
Description: as §1, §2

[3] = system: 60 kinds of different human cancer cells; experiment: NCI 60-cell drug screen, one dose, whole panel; format: cell-based; conditions: mean over the tested cell lines, 1.00E−5 Molar
Description: as §1, §2

Row | SMILES | activity at 1 µM [1] [%] | activity at 10 µM [1] [%] | activity at 100 µM [1] [%] | Growth Percent [2] [%] | Growth Percent (786-0) [%] | Growth Percent (BT-549) [%] | Growth Percent (HL-60(TB)) [%] | Growth Percent (HOP-62) [%] | Growth Percent (LOX IMVI) [%] | Growth Percent (M14) [%] | Growth Percent (MALME-3M) [%] | Growth Percent (MCF7) [%] | Growth Percent (MDA-MB-435) [%] | Growth Percent (MDA-MB-468) [%] | Growth Percent (NCI-H23) [%] | Growth Percent (OVCAR-5) [%] | Growth Percent (SF-268) [%] | Growth Percent (SF-539) [%] | Growth Percent (SK-MEL-28) [%] | Growth Percent (SK-MEL-2) [%] | other results
1 | O=C1c2ccccc2C(=O)c2c1ccc1nc(CN3CCCCC3)[nH]c21 [CL16, 2-((piperidin-1-yl)methyl)-1H-anthra[1,2-d]imidazole-6,11-dione] | 75.8 ± 26.9 | < 50 | 6.78 | 61.84 | 62.88 | 109.47 | 56.89 | 92.69 | 62.99 | 100.82 | 119.68 | 42.74 | 102.02 | 58.32 | 81.32 | 101.70 | 58.46 | 82.47 | 107.08 | 113.29 | Growth Percent (SK-MEL-5): 65.73%; Growth Percent (SK-OV-3): 92.54%; Growth Percent (SN12C): 96.96%; Growth Percent (SNB-75): 86.42%; Growth Percent (T-47D): 69.11%; Growth Percent (TK-10): 115.68%; Growth Percent (U251): 72.67%; Growth Percent (UACC-62): 74.61%; Growth Percent (UO-31): 42.93%; Growth Percent, Mean [3]: 75.35%
2 | CN1CCN(Cc2nc3ccc4c(c3[nH]2)C(=O)c2ccccc2C4=O)CC1 [CL24, 2-((4-methylpiperazin-1-yl)methyl)-1H-anthra[1,2-d]imidazole-6,11-dione] | 106 ± 2.94 | 23.2 | 6.23 | 69.36 | 59.13 | 100.53 | 65.29 | 60.84 | 43.47 | 97.20 | 89.63 | 36.71 | 86.53 | 71.59 | 72.97 | 97.72 | 51.16 | 63.88 | 96.38 | 107.95 | Growth Percent (SK-MEL-5): 77.46%; Growth Percent (SK-OV-3): 74.33%; Growth Percent (SN12C): 48.50%; Growth Percent (SNB-75): 69.87%; Growth Percent (T-47D): 97.08%; Growth Percent (TK-10): 73.05%; Growth Percent (U251): 65.41%; Growth Percent (UACC-62): 81.12%; Growth Percent (UO-31): 22.93%; Growth Percent, Mean [3]: 59.85%
3 | CN(CCc1ccccn1)Cc1nc2ccc3c(c2[nH]1)C(=O)c1ccccc1C3=O [CL07, 2-((N-methyl-2-(pyridin-2-yl)ethanamino)methyl)-1H-anthra[1,2-d]imidazole-6,11-dione] | 96.5 ± 5.53 | < 50 | -3.16 | 69.60 | 89.74 | 114.38 | 120.08 | 105.37 | 89.67 | 106.97 | 107.00 | 69.06 | 93.53 | 77.09 | 90.81 | 109.14 | 85.87 | 102.32 | 97.01 | 95.03 | Growth Percent (SK-MEL-5): 75.48%; Growth Percent (SK-OV-3): 106.7%; Growth Percent (SN12C): 91.19%; Growth Percent (SNB-75): 81.62%; Growth Percent (T-47D): 68.45%; Growth Percent (TK-10): 130.74%; Growth Percent (U251): 81.83%; Growth Percent (UACC-62): 89.67%; Growth Percent (UO-31): 49.49%; Growth Percent, Mean [3]: 89.07%
4 | CCN(CC)Cc1nc2ccc3c(c2[nH]1)C(=O)c1ccccc1C3=O [CL04, 2-((diethylamino)methyl)-1H-anthra[1,2-d]imidazole-6,11-dione] | 91.2 ± 4.38 | < 50 | 0.13 | 49.50 | 64.88 | 105.50 | 68.18 | 85.27 | 61.98 | 97.86 | 98.45 | 51.13 | 88.53 | 54.46 | 75.96 | 96.50 | 74.04 | 85.26 | 92.41 | 102.69 | Growth Percent (SK-MEL-5): 68.20%; Growth Percent (SK-OV-3): 86.81%; Growth Percent (SN12C): 69.04%; Growth Percent (SNB-75): 82.03%; Growth Percent (T-47D): 83.55%; Growth Percent (TK-10): 98.12%; Growth Percent (U251): 70.77%; Growth Percent (UACC-62): 68.47%; Growth Percent (UO-31): 27.21%; Growth Percent, Mean [3]: 69.66%
